Measurements taken from patent US5240941A, “Thioxo quinoline compounds, composition and method of use” (ICI Pharma, priority 1990, dated 1993).

Assays:
5-LO [1] = experiment: Test g) zymosan-induced LTB4 liberation in air pouch of male rats; format: in vivo; settings: 3 h; test g), rat air pouch, oral
Description: g) An in vivo system involving measuring the effects of a test compound administered orally against the liberation of LTB4 induced by zymosan within an air pouch generated within the subcutaneous tissue of the back of male rats. The rats are anaesthetised and air pouches are formed by the injection of sterile air (20 ml). A further injection of air (10 ml) is similarly given after 3 days. At 6 days after the initial air injection the test compound is administered (usually orally as the suspension produced when a solution of the test compound in dimethylsulphoxide is added to hydroxypropylmethylcellulose), followed by the intrapouch injection of zymosan (1 ml of a 1% suspension in physiological saline). After 3 hours the rats are killed, the air pouches are lavaged with physiological saline, and the specific radioimmunoassay described above is used to assay LTB4 in the washings. This test provides an indication of inhibitory effects against 5-LO in an inflammatory milieu.

5-LO [2] = experiment: Test b) heparinised human blood, A23187 challenge, LTB4 radioimmunoassay; format: cell-based
Description: b) An in vitro assay system involving incubating a test compound with heparinised human blood, prior to challenge with the calcium ionophore A23187 and then indirectly measuring the inhibitory effects on 5-LO by assaying the amount of LTB4 using specific radioimmunoassays described by Carey and Forder (F. Carey and R. A. Forder, Prostaglandins Leukotrienes Med., 1986, 22, 57; Prostaglandins,1984, 28, 666; Brit. J. Pharmacol. 1985, 84, 34P) which involve the use of a protein-LTB4 conjugate produced using the procedure of Young et alia (Prostaglandins, 1983, 26(4), 605-613). The effects of a test compound on the enzyme cyclooxygenase (which is involved in the alternative metabolic pathway for arachidonic acid and gives rise to prostaglandins, thromboxanes and related metabolites) may be measured at the same time using the specific radioimmunoassay for thromboxane B2 (TxB2) described by Carey and Forder (see above). This test provides an indication of the effects of a test compound against 5-LO and also cyclooxygenase in the presence of blood cells and proteins. It permits the selectivity of the inhibitory effect on 5-LO or cyclooxygenase to be assessed.

| IC50 (5-LO [2]) [nM] | Compound | ED50 (5-LO [1]) [mg/kg] |
| --- | --- | --- |
| 100 | COC1(c2cc(F)cc(OCc3ccc4c(c3)CCC(=S)N4C)c2)CCOCC1 [4-[5-fluoro-3-(1-methyl-2-thioxo-1,2,3,4-tetrahydroquinolin-6-ylmethoxy)phenyl]-4-methoxytetrahydropyran] | 1.5 |
| 50 | COC1(c2cc(F)cc(Sc3ccc4c(c3)CCC(=S)N4C)c2)CCOCC1 [4-[5-fluoro-3-(1-methyl-2-thioxo-1,2,3,4-tetrahydroquinolin-6-ylthio)phenyl]-4-methoxytetrahydropyran] | 0.5 |
